From patent US6489166B1, “Plant regeneration method for mature seed-derived callus in zoysiagrass” (Korea Kumho Petrochemical Co., Ltd., priority 2001, dated 2002)

Columns and labels:
Assay type in all cases: cell-based, Zoysia japonica Steud.
[1] = tested on: Type I calli derived from mature seeds of zoysiagrass; experiment: Effects of cytokinins on shoot induction from callus; conditions: 44 Type I calli tested, MS with 30 g/L maltose, 2 weeks
[2] = tested on: Type I calli derived from mature seeds of zoysiagrass; experiment: as above; conditions: Type I calli, MS with 30 g/L maltose, 2 weeks
Description: The media were additionally supplemented with 1 or 4 mg/L of kinetin, 6-benzylaminopurine, or TDZ. Each treatment consisted of 3 MS plates, each with 16 calli.

[3] = tested on: mature seeds of zoysiagrass; experiment: Callus induction from mature seeds on MS media with growth hormone combinations; conditions: 2,4-dichlorophenoxyacetic acid 0 mg/L, MS, 3 months
Description: Seeds of zoysiagrass (Zoysia japonica Steud.), from which seed coats were first removed, were sterilized by soaking in 70% ethyl alcohol for 1 min and subsequently in 5% sodium hypochlorite solution supplemented with 0.001% (v/v) Tween 20 for 15 min. The sterilized seeds were then thoroughly rinsed with sterilized distilled water 3-4 times. They were then germinated and grown for 2 weeks on the N6 media (pH 5.8) containing 1 mg/L 2,4-dichlorophenoxyacetic acid, 3% sucrose, and 0.2% gelite and subject to callus induction. The callus induction and growth was carried out in a controlled environment culture room set at 26° C. and 70% humidity in the dark.
To examine the effects of plant growth hormones on the callus induction efficiency and the callus morphology, sterilized seeds were placed and cultured on the MS plates supplemented with 4 mg/L thiamine-HCl and 100 mg/L α-ketoglutaric acid. The MS plates, each with a diameter of 9 cm, were further supplemented with various amounts of 2,4-dichlorophenoxyacetic acid (0, 1, 2, 4, 8 mg/L) and 6-benzylaminopurine (0, 0.02, 0.2, 2, 4 mg/L). One hundred seeds were grown per each MS plate, and 3 plates were used for each treatment group. After three months, the number of seeds from which calli had been induced was counted. For the morphological classification of calli, calli were induced and grown on the MS media supplemented with 6-benzylaminopurine and 2,4-dichlorophenoxyacetic acid under the identical condition as described above for three months. They could be morphologically classified into four distinct groups (I-IV), based on the callus morphology, color, and rigidity.
To investigate the effects of plant growth hormones on the callus induction, the mature seed-derived callus induction rates were measured on the MS media supplemented with different amounts of 2,4-dichlorophenoxyacetic acid and 6-benzylaminopurine after grown for three months.
Seeds were plated and grown on the MS media containing 4 mg/L thiamine-HCl, 100 mg/L α-ketoglutaric acid, and different concentration combinations of 2,4-dichlorophenoxyacetic acid and 6-benzylaminopurine for 3 months.

In the case of `c1ccc(CNc2ncnc3nc[nH]c23)cc1` [6-benzylaminopurine], the “Number of calli with shoots” value ([1]; growth regulator 1 mg/L) is reported as 17, the “Number of calli with shoots” value ([1]; growth regulator 4 mg/L) is reported as 9 and the “Number of shoots over 5 mm” value ([2]; growth regulator 1 mg/L) is reported as 19. The “Number of shoots per callus lump” value ([2]; growth regulator 1 mg/L) was 5.2, the “Number of shoots over 5 mm” value ([2]; growth regulator 4 mg/L) was 1 and the “Number of shoots per callus lump” value ([2]; growth regulator 4 mg/L) was 3.7. The “Callus producing seeds (%)” value ([3]; 6-benzylaminopurine 0.02 mg/L) was 0 (0) %, the “Number of callus producing seeds” value ([3]; 6-benzylaminopurine 0.02 mg/L) was 0 (0) and the “Callus producing seeds (%)” value ([3]; 6-benzylaminopurine 0.2 mg/L) was 0 (0) %. For the same compound, the “Number of callus producing seeds” value ([3]; 6-benzylaminopurine 0.2 mg/L) was 0 (0), the “Callus producing seeds (%)” value ([3]; 6-benzylaminopurine 2 mg/L) was 0 (0) % and the “Number of callus producing seeds” value ([3]; 6-benzylaminopurine 2 mg/L) was 0 (0). For the same compound, the “Callus producing seeds (%)” value ([3]; 6-benzylaminopurine 4 mg/L) was 0 (0) % and the “Number of callus producing seeds” value ([3]; 6-benzylaminopurine 4 mg/L) was 0 (0).
